Calls of active or inactive are those of the source.
Tests used:
Escherichia coli = assay: microbe, parasite or virus in culture
[1] = target: Dual specificity tyrosine-phosphorylation-regulated kinase 1A (Homo sapiens, UniProt Q13627); assay type: functional;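 also: measured against DYRK1A as one member of a broad kinome profiling panel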
[2] = target: Calcium/calmodulin-dependent protein kinase type II subunit beta (Homo sapiens, UniProt Q13554); assay type: functional
[3] = target: Glycogen synthase kinase-3 beta (Homo sapiens, UniProt P49841); assay type: functional;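 also: value comes from a broad kinome profiling panel, with GSK3B as the panel member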
Chain of Glycogen synthase kinase-3 beta (P49841 whole entry): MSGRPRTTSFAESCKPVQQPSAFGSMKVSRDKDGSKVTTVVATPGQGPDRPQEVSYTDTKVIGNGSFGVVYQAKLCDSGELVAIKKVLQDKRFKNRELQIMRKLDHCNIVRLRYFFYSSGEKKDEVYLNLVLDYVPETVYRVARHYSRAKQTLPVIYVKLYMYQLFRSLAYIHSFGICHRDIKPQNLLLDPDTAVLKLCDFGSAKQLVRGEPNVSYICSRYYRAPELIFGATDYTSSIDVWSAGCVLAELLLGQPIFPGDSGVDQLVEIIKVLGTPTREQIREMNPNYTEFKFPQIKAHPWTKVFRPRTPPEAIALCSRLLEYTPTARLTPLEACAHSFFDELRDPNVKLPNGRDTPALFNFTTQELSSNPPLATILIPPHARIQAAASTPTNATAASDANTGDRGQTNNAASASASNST

[4] = target: Glycogen synthase kinase-3 alpha (Homo sapiens, UniProt P49840); assay type: functional;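 also: GSK3A result taken from a broad kinome-wide kinase panel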
Chain of Glycogen synthase kinase-3 alpha (P49840 whole entry): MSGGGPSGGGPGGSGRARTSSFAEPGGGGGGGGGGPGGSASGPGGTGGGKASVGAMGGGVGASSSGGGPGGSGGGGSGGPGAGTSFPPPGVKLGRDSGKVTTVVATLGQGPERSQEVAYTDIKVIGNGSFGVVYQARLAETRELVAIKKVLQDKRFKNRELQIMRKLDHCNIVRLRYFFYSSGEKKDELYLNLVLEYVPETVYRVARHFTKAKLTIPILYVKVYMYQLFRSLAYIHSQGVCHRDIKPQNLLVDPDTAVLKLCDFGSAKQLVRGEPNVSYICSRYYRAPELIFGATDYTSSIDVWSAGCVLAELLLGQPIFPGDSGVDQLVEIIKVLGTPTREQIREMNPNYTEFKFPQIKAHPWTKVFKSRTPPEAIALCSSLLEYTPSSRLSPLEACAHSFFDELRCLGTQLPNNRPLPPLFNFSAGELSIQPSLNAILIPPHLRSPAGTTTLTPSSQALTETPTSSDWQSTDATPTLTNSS

[5] = target: T1, Nuclear receptor subfamily 0 group B member 1 (Homo sapiens, UniProt P51843); assay: Luminescence-based cell-based high throughput dose response assay for inhibitors of the orphan nuclear receptor subfamily 0, group B, member 1 (DAX1; NR0B1). [Related pubchem assays (depositor defined):AID504766, AID504790]; assay type: functional
T1 sequence (P51843 whole entry): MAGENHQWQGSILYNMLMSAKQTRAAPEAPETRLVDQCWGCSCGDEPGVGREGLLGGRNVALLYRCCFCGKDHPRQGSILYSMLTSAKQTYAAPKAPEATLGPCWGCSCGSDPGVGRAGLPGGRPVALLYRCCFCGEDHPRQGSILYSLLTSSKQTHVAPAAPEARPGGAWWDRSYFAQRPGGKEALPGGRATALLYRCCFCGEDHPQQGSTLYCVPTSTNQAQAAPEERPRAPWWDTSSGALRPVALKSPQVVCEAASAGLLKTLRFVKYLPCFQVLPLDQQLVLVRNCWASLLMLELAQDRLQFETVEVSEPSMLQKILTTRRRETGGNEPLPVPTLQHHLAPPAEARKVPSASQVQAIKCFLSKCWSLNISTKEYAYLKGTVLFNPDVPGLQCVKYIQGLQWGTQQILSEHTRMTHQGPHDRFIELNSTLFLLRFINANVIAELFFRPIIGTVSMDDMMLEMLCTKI

HEK293 [6] = assay: cells; assay type: functional, cell-based; conditions: Homo sapiens
HEK293 [7] = assay: cells; assay type: functional, cell-based; conditions: Homo sapiens; remark: listed apart in the source
HEK293 [8] = assay: NOD2 signaling inhibitors in MDP-stimulated cells, cell-based, uHTS, luminescence (AID 2001); assay type: functional; conditions: Homo sapiens
HEK293 [9] = assay: inhibition of NOD1-driven NF-kB reporter – cell-based, luminescence, uHTS, primary screen (AID 1578); assay type: functional; conditions: Homo sapiens
HEK293 [10] = assay: cells; conditions: Homo sapiens
HEK293 [11] = assay: cells; assay type: functional, cell-based; conditions: Homo sapiens; remark: listed apart in the source
HEK293 [12] = assay: cells; assay type: functional, cell-based; conditions: Homo sapiens; remark: listed apart in the source
[13] = target: T2, Nucleotide-binding oligomerization domain-containing protein 1 (Homo sapiens, UniProt Q9Y239); assay: blockers of NOD1 pathway activity – revised, SAR follow-up (AID 2333); assay type: functional
T2 sequence (Q9Y239 whole entry): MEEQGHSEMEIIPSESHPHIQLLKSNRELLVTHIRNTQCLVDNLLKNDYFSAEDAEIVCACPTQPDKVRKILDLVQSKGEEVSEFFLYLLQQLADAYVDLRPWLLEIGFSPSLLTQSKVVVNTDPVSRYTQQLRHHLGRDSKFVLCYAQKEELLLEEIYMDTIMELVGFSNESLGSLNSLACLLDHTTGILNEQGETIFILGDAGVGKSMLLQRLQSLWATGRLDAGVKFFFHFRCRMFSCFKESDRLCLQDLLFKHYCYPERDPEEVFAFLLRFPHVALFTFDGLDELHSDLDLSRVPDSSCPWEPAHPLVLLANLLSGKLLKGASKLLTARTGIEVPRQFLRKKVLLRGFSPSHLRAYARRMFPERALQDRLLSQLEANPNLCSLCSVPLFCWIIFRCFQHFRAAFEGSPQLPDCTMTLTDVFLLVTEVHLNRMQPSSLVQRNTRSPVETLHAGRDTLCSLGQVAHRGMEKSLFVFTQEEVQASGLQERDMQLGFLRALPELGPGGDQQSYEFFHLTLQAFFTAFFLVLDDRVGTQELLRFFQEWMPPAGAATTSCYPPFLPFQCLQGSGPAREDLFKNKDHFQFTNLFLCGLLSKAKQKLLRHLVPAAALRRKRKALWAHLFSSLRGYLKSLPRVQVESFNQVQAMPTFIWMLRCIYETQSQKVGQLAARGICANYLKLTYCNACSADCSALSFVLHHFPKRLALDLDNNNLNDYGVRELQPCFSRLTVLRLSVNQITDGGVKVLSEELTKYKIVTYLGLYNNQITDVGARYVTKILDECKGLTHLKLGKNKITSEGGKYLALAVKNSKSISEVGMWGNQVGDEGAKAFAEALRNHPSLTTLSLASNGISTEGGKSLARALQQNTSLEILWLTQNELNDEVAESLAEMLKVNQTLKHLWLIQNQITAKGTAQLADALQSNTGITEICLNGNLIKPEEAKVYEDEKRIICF

[14] = target: Nucleotide-binding oligomerization domain-containing protein 2 (Homo sapiens, UniProt Q9HC29); assay: inhibition of NOD2-driven NF-kB reporter – cell-based, luminescence, uHTS, HEK293 (AID 1566); assay type: functional
Chain of Nucleotide-binding oligomerization domain-containing protein 2 (Q9HC29 whole entry, the tested form may be a part): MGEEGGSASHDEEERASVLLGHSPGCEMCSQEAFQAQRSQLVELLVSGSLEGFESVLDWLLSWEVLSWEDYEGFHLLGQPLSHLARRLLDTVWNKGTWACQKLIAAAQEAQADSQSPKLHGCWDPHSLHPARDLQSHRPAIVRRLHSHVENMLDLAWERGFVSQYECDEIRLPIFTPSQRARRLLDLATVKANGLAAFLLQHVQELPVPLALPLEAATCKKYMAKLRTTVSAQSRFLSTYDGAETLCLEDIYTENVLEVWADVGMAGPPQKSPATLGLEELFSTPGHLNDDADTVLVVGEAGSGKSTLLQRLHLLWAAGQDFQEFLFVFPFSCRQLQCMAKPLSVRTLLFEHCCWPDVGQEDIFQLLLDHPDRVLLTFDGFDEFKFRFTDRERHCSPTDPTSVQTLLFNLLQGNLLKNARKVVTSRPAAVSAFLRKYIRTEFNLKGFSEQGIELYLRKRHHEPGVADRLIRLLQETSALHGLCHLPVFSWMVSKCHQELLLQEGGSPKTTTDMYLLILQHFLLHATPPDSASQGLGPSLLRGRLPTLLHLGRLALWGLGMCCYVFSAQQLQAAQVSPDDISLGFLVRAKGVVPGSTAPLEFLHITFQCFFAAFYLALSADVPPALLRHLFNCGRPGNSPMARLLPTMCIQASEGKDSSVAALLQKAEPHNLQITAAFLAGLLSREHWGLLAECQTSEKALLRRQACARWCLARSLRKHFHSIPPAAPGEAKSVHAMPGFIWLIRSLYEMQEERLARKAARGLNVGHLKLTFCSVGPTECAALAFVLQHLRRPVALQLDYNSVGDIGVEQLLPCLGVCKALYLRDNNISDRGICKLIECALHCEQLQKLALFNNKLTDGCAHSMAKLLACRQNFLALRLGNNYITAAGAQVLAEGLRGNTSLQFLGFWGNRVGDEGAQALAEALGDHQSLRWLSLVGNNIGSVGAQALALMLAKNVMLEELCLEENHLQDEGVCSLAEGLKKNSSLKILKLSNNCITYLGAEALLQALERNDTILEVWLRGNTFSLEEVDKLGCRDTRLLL

Tumor necrosis factor = Tumor necrosis factor (Homo sapiens, UniProt P01375); assay: analog potency on TNFa NF-kB signaling – cell-based, revised, SAR follow-up (AID 2337); assay type: functional
Chain of Tumor necrosis factor (P01375 whole entry): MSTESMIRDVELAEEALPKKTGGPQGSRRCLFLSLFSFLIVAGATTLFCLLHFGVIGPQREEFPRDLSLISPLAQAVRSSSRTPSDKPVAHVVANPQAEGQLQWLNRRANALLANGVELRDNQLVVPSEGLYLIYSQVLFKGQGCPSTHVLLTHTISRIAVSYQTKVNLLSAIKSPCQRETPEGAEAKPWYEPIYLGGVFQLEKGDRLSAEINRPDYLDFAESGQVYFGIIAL

Chain of Calcium/calmodulin-dependent protein kinase type II subunit beta (Q13554 whole entry): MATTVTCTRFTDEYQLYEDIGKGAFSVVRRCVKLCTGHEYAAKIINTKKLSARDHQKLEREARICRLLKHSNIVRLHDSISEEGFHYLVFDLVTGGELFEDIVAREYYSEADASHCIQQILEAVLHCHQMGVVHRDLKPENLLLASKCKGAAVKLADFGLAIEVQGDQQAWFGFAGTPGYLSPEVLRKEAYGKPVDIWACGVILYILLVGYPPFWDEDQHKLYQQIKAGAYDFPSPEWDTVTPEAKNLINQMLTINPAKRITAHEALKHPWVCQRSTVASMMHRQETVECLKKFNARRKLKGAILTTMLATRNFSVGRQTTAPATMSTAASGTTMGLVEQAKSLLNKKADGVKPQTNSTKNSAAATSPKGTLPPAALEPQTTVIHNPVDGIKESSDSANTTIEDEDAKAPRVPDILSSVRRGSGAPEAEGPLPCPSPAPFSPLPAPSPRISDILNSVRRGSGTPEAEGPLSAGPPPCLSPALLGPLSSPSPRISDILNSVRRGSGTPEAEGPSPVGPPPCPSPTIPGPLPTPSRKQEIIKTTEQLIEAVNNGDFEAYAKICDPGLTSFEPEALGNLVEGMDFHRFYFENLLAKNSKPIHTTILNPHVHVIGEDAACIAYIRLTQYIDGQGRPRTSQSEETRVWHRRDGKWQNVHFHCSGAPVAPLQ

SMILES	AC50 (Escherichia coli)	IC50 (HEK293 [7])	IC50 (HEK293 [8])	EC50 (HEK293 [9])	IC50 (HEK293 [10])	IC50 (HEK293 [11])	IC50 (HEK293 [12])	other results
Cc1ccc(C(=O)N2CCCC(CCC(=O)NCc3ccc(F)c(F)c3)C2)cn1 (stereo not drawn)	33.1 µM (active)							
O=C1CN=C(c2cccc(Cl)c2)c2c(sc3c2CCCC3)N1								Ki [1]: 2.51 µM (active); Ki [2]: 6.31 µM (active); Ki [3]: 3.16 µM (active); Ki [4]: 3.98 µM (active)
CC1=C(C(=O)OCC2CCCO2)C(c2coc3ccc(Cl)cc3c2=O)C2=C(O)CCCC2=N1 (stereo not drawn)								IC50 [5]: > 67.5 µM (inactive); IC50 (HEK293 [6]): > 67.5 µM (inactive)
Cc1oc(-c2ccccc2Cl)nc1CSc1nc(O)c2c(n1)CCCC2		19.5 µM (active)	7.49 µM (active)	8.45 µM (active)	> 20 µM (inactive)	> 20 µM (inactive)	> 20 µM (inactive)	
COc1ccc(CN(C)S(=O)(=O)c2nnc(NC(=O)c3cccc(F)c3)s2)cc1		17.1 µM (active)	12.3 µM (inactive)	1.8 µM (active)	> 20 µM (inactive)	> 20 µM (inactive)	> 20 µM (inactive)	IC50 [13]: 6.74 µM (active); EC50 [14]: 12.7 µM (active); IC50 (Tumor necrosis factor): 8.03 µM (active)
C=CCC[C@H](Cc1ccc(F)cc1)C(=O)OC[C@@H](C)NC(=O)[C@H](CC=C)CC(=O)NCCO	> 150 µM (inactive)							

Source: ChEMBL document CHEMBL1201862, “PubChem BioAssay data set” (2004)
